Source: the NIST ThermoML archive (doi:10.1016/j.jct.2009.07.002)

Test: isobaric coefficient of expansion
Details: Liquid, DSC with Pressure Shift

CCCCCO [pentan-1-ol]
isobaric coefficient of expansion
Details	278.15 K	288.15 K	298.15 K	308.15 K	318.15 K	328.15 K	338.15 K	348.15 K
5000 kPa	0.000863 1/K	0.000873 1/K	0.000889 1/K	0.000908 1/K	0.000934 1/K	0.00096 1/K	0.001 1/K	0.00105 1/K
10000 kPa	0.000833 1/K	0.00085 1/K	0.000864 1/K	0.000883 1/K	0.000904 1/K	0.00093 1/K	0.000961 1/K	0.001 1/K
15000 kPa	0.000826 1/K	0.000831 1/K	0.000847 1/K	0.00086 1/K	0.000879 1/K	0.000899 1/K	0.000927 1/K	0.00096 1/K
20000 kPa	0.000805 1/K	0.000813 1/K	0.000825 1/K	0.000838 1/K	0.000853 1/K	0.000873 1/K	0.000899 1/K	0.000927 1/K
25000 kPa	0.000788 1/K	0.000795 1/K	0.000805 1/K	0.000816 1/K	0.00083 1/K	0.000849 1/K	0.000874 1/K	0.000899 1/K
30000 kPa	0.000778 1/K	0.000779 1/K	0.000788 1/K	0.000796 1/K	0.000814 1/K	0.000827 1/K	0.000847 1/K	0.000871 1/K
35000 kPa	0.000752 1/K	0.000761 1/K	0.000772 1/K	0.00078 1/K	0.000794 1/K	0.000809 1/K	0.000828 1/K	0.000849 1/K
40000 kPa	0.000742 1/K	0.000747 1/K	0.000757 1/K	0.000763 1/K	0.000776 1/K	0.00079 1/K	0.000806 1/K	0.000826 1/K
45000 kPa	0.000735 1/K	0.000735 1/K	0.000741 1/K	0.000748 1/K	0.000759 1/K	0.000772 1/K	0.000786 1/K	0.000807 1/K
50000 kPa	0.000719 1/K	0.000724 1/K	0.000729 1/K	0.000734 1/K	0.000745 1/K	0.000755 1/K	0.000773 1/K	0.000787 1/K
55000 kPa	0.000714 1/K	0.000713 1/K	0.000717 1/K	0.000721 1/K	0.000731 1/K	0.00074 1/K	0.000755 1/K	0.000768 1/K

CCCCCCO [hexan-1-ol]
isobaric coefficient of expansion
Details	278.15 K	288.15 K	298.15 K	308.15 K	318.15 K	328.15 K	338.15 K	348.15 K
5000 kPa	0.000821 1/K	0.000837 1/K	0.00085 1/K	0.000875 1/K	0.000898 1/K	0.000929 1/K	0.000958 1/K	0.000995 1/K
10000 kPa	0.0008 1/K	0.000819 1/K	0.000832 1/K	0.000853 1/K	0.000877 1/K	0.0009 1/K	0.000929 1/K	0.00096 1/K
15000 kPa	0.000788 1/K	0.000802 1/K	0.000812 1/K	0.000834 1/K	0.000854 1/K	0.000876 1/K	0.000903 1/K	0.000929 1/K
20000 kPa	0.000778 1/K	0.000786 1/K	0.000796 1/K	0.000815 1/K	0.000833 1/K	0.000854 1/K	0.00088 1/K	0.000903 1/K
25000 kPa	0.00076 1/K	0.000772 1/K	0.00078 1/K	0.000796 1/K	0.000812 1/K	0.000833 1/K	0.000854 1/K	0.000875 1/K
30000 kPa	0.000748 1/K	0.000756 1/K	0.000764 1/K	0.000779 1/K	0.000794 1/K	0.000813 1/K	0.000832 1/K	0.000852 1/K
35000 kPa	0.000733 1/K	0.000743 1/K	0.000749 1/K	0.000763 1/K	0.000778 1/K	0.000794 1/K	0.000813 1/K	0.000831 1/K
40000 kPa	0.000723 1/K	0.000731 1/K	0.000734 1/K	0.000747 1/K	0.000758 1/K	0.000776 1/K	0.000791 1/K	0.000808 1/K
45000 kPa	0.000716 1/K	0.00072 1/K	0.000724 1/K	0.000733 1/K	0.000745 1/K	0.000759 1/K	0.000776 1/K	0.000791 1/K
50000 kPa	0.000708 1/K	0.000703 1/K	0.000712 1/K	0.000721 1/K	0.000729 1/K	0.000745 1/K	0.000758 1/K	0.000772 1/K
55000 kPa	0.000699 1/K	0.000696 1/K	0.0007 1/K	0.000709 1/K	0.000719 1/K	0.000731 1/K	0.000744 1/K	0.000754 1/K

CCCCCCCCO [octan-1-ol]
isobaric coefficient of expansion
Details	278.15 K	288.15 K	298.15 K	308.15 K	318.15 K	328.15 K	338.15 K	348.15 K
5000 kPa	0.000816 1/K	0.000817 1/K	0.000818 1/K	0.00084 1/K	0.000859 1/K	0.000877 1/K	0.0009 1/K	0.000928 1/K
10000 kPa	0.000798 1/K	0.000793 1/K	0.000799 1/K	0.000821 1/K	0.000837 1/K	0.00085 1/K	0.000873 1/K	0.000896 1/K
15000 kPa	0.00078 1/K	0.000774 1/K	0.000784 1/K	0.000801 1/K	0.000815 1/K	0.000827 1/K	0.000845 1/K	0.000865 1/K
20000 kPa	0.000755 1/K	0.000761 1/K	0.000764 1/K	0.000783 1/K	0.000793 1/K	0.000805 1/K	0.000822 1/K	0.000843 1/K
25000 kPa	0.000742 1/K	0.000746 1/K	0.000749 1/K	0.000762 1/K	0.000775 1/K	0.000787 1/K	0.000801 1/K	0.000821 1/K
30000 kPa	0.00073 1/K	0.000732 1/K	0.000736 1/K	0.000746 1/K	0.000758 1/K	0.000767 1/K	0.000783 1/K	0.0008 1/K
35000 kPa	0.000717 1/K	0.000715 1/K	0.000724 1/K	0.00073 1/K	0.000742 1/K	0.000751 1/K	0.000766 1/K	0.00078 1/K
40000 kPa	0.000704 1/K	0.000707 1/K	0.000714 1/K	0.000716 1/K	0.000727 1/K	0.000735 1/K	0.000746 1/K	0.000762 1/K
45000 kPa	0.00069 1/K	0.000692 1/K	0.000698 1/K	0.000702 1/K	0.000711 1/K	0.000719 1/K	0.000731 1/K	0.000745 1/K
50000 kPa	0.000683 1/K	0.000681 1/K	0.000687 1/K	0.000692 1/K	0.000698 1/K	0.000705 1/K	0.000717 1/K	0.000731 1/K
55000 kPa	0.000673 1/K	0.000671 1/K	0.000676 1/K	0.000678 1/K	0.000688 1/K	0.000692 1/K	0.000705 1/K	0.000717 1/K
